Experimental data published in article PMC10342533, “Novel Tetrazole Derivatives Targeting Tubulin Endowed with Antiproliferative Activity against Glioblastoma Cells” (International Journal of Molecular Sciences, 2023).

Assays:
HeLa cells = assay: Apoptotic cell death quantification, Annexin V-FITC/PI, HeLa; format: cell-based, human; conditions: 72 h, 100 nM
Protocol: (§1) To characterize the cell death mechanism induced by the representative compounds 10, 12, or 14 at 100 nM on HeLa, MCF7, and U87 MG cells, dual-channel flow cytometry studies were carried out for cells in the absence (negative control) or presence of compounds 72 h after treatment. Fluorescein isothiocyanate-labeled Annexin V (FITC-AnV) and propidium iodide (PI) were used for double staining. Regarding their response to AnV and PI, cells can be identified as viable (PI−, AnV−), early apoptotic (PI−, AnV+), late apoptotic or secondary necrotic (PI+, AnV+), or necrotic (PI+, AnV−). The translocation of the phosphatidylserine from the inner to the outer cell membrane causes the response of apoptotic cells to AnV, whereas only cells suffering some kind of membrane disintegration (late apoptotic or necrotic cells) allow PI permeation.
(§2) Following the manufacturer’s guidelines, an Annexin V-FITC/PI apoptosis detection kit (Immunostep, Salamanca, Spain) was used to quantify HeLa, MCF7, or U87 MG cells. Cells were seeded in 12-well plates (5·10^4 cells/mL, 1 mL/well) and incubated in complete DMEM medium (see above) at 37 °C and 5% CO2 atmosphere for 24 h. Then, the cells were treated with selected compounds (10, 12, or 14) at 100 nM, and untreated cells were used as negative controls. Then, 72 h after incubation, the cells were harvested, centrifugated, resuspended in the Annexin V binding buffer, and incubated in darkness with Annexin V-FITC/PI for 15 min at room temperature. The samples were analyzed by using a BD Accuri™ C6 Plus Flow Cytometer (BD Biosciences), and acquired data were analyzed via BD Accuri™ C6 Software (version 1.0.264.21).

[1] = system: microtubule network of HeLa cells; assay: Immunofluorescence confocal microscopy of microtubule network, HeLa; format: cell-based, human; conditions: 24 h, 100 nM, α-tubulin immunofluorescence
Protocol: To elucidate if the interaction of the compounds with tubulin inferred from the in vitro TPI experiments has consequences on cellular microtubules, we studied the effect of representative compounds on the microtubule network of HeLa, MCF7, and U87 MG cells 24 h after treatment via the use of immunofluorescence confocal microscopy through α-tubulin and nuclei labeling.
HeLa, MCF7, and U87 MG cells (8·10^4 cells/mL) were grown on 0.01% poly-L-lysine pre-coated square glass coverslips (22 mm^2), deposited on 6-well plates (1 coverslip/well), and incubated in complete DMEM medium (see above) at 37 °C and 5% CO2 atmosphere for 24 h. Then, the cells were incubated for 24 h in the presence or absence (negative controls) of selected compounds (10, 12, or 14) at 100 nM. After drug treatment incubation, medium was removed, and coverslips were washed three times with PBS, fixed with 4% formaldehyde in PBS for 10 min, permeabilized with 0.5% Triton X-100, (Sigma-Aldrich, St. Louis, MO, USA) in PBS for 90 s at 4 °C, blocked with 10% BSA in PBS for 30 min, and washed with PBS four times. The coverslips were incubated for 1 h with anti-α-tubulin mouse monoclonal antibody (Sigma-Aldrich, St. Louis, MO, USA), diluted 1:200 in PBS containing 3% BSA, washed four times with PBS, and then incubated in darkness with the fluorescent secondary antibody Alexa Fluor 488 goat anti-mouse IgG (Molecular Probes, Invitrogen, Eugenen, OR, USA) and diluted 1:400 in PBS containing 1% BSA for 1.5 h. The coverslips were washed four times with PBS, and a drop of ProLong™ Gold Antifade Mountant containing DAPI (ThermoFisher, Waltham, MA, USA) was added for cell nuclei staining. The samples were analyzed via confocal microscopy, which was performed by using a LEICA SP5 microscope DMI-6000V model coupled to a LEICA LAS AF software computer.

[2] = system: HepG2 (hepatocellular carcinoma); assay: Cell growth inhibition, MTT assay, HepG2; format: cell-based; conditions: Homo sapiens
Protocol: (§3) The ability of the synthesized compounds to inhibit the cell proliferation of human cancer cell lines was assayed by measuring cell viability through the use of the MTT method 72 h after treatment. For this purpose, representative cell lines of the most frequent kinds of cancer were selected, including the following: HeLa (cervix epithelioid carcinoma), MCF7 (breast adenocarcinoma), U87 MG (glioblastoma), T98G (temozolomide resistant glioblastoma), HepG2 (hepatocellular carcinoma), HCT8 (colorectal carcinoma), and HT-29 (colon adenocarcinoma).
(§4) The cell lines were obtained from ATTC (Manassas, VA, USA). […] The cells were periodically tested for Mycoplasma infection by using a MycoAlert kit (Lonza, Norwest, Australia), and only Mycoplasma-free cells were used in the experiments.
(§5) Then, every compound was added (10 µL/well) to a final concentration of 10 µM. Untreated cells were used as negative controls. The antiproliferative activity of compounds was measured 72 h after drug exposure through the MTT assay. […] For this purpose, compounds were used at different concentrations, ranging from 10^−10 to 10^−2 M. Measurements were performed in triplicate, and each experiment was repeated three times. The IC50 values were determined using Origin software (version 9.6, OriginLab, Washington, DC, USA).

MCF7 cells = assay: Apoptotic cell death quantification, Annexin V-FITC/PI, MCF7; format: cell-based, human; conditions: MCF7, 72 h, 100 nM; for Necrotic cells: PI+ AnV−
Protocol: as §1, §2

[3] = system: HT-29 (colon adenocarcinoma); assay: Cell growth inhibition, MTT assay, HT-29, without or with verapamil; format: cell-based, human
Protocol: as §3
Multidrug resistance (MDR) proteins, especially P-glycoprotein (P-gp), are often involved in resistance mechanisms affecting tubulin-binding drugs that are frequently related to the failure of cancer therapies. […] These pumps are also part of the blood–brain barrier.
as §4, §5

[4] = biological target: T1, microtubular protein isolated from calf brains (bovine brain tubulin) (Bos taurus, UniProt P81947+Q6B856); assay: Tubulin polymerization inhibition (TPI); format: biochemical; conditions: in vitro tubulin polymerization, mean ± SD
T1 construct: from tissue; host or cells: calf (bovine) brain
T1 sequence (Q6B856 whole entry): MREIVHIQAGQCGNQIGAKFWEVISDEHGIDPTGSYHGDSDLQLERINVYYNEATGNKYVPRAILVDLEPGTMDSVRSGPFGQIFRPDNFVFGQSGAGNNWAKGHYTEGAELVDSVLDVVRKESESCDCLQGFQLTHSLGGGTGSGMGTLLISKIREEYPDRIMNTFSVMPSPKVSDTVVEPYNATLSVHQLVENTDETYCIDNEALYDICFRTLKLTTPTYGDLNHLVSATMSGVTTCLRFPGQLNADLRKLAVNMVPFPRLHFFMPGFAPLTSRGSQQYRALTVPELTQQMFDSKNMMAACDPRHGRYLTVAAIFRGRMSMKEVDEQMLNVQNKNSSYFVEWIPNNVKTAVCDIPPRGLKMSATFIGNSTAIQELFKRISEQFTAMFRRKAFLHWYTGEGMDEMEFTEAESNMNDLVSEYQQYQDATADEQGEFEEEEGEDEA
T1 sequence (P81947 whole entry): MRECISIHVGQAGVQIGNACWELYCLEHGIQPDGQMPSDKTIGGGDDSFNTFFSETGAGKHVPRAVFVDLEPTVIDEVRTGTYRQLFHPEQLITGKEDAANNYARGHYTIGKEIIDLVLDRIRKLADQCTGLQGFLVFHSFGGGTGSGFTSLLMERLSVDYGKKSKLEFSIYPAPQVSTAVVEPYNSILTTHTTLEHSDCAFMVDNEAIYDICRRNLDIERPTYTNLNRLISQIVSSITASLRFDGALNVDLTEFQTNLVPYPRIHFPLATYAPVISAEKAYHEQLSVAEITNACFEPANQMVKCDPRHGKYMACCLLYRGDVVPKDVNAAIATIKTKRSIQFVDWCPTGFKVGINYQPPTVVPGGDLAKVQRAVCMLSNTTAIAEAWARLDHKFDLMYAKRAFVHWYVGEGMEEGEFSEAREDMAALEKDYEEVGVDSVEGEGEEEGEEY
Protocol: We evaluated the capacity of the new synthesized compounds to inhibit the polymerization of microtubular protein isolated from calf brains. The assays were performed by taking absorbance measurements to quantify the amount of polymer mass formed in the presence (or absence; negative controls) of the compounds.
Bovine brain tubulin was isolated as previously described by following a modified version of the Shelanski method. The protein was stored at −80 °C, and its concentration was determined by employing the Bradford method before each use. […] Tubulin polymerization, caused when heating the samples, was accompanied by an increase in the absorbance (at 450 nm) of the sample that was monitored by using a Helios α spectrophotometer. […] Measurements were performed in triplicate in two independent experiments using microtubular proteins from different preparations.

[5] = Homo sapiens, HT-29, 72 h after drug exposure
[6] = Homo sapiens, HT-29, mean ± SD, Table S1
[7] = mean ± SD, Table S1, in the presence of verapamil (10 µM)

IC50 ([2]; 72 h after drug exposure)	IC50 ([2]; mean ± SD, Table S1)	IC50 [3, 5]	IC50 [3, 6]	IC50 [3, 7]	IC50 [4]	SMILES	apoptosis (early and late apoptotic death) (HeLa cells)	effect on microtubule network [1]	early and late apoptotic populations (MCF7 cells)	Necrotic cells (MCF7 cells)
36 nM	36.4 ± 0.2 nM	51 nM	51.3 ± 0.3 nM	56.5 ± 0.5 nM	1300 ± 100 nM	Cn1cc(C=O)c2cc(-n3nnnc3-c3cc(Cl)nc(Cl)c3)ccc21 [Compound 12, 5-(5-(2,6-dichloropyridin-4-yl)-1H-tetrazol-1-yl)-1-methyl-1H-indole-3-carbaldehyde]	~73%	severe microtubule network disruption	8%	7%
31 nM	31.1 ± 0.3 nM	31 nM	31.1 ± 0.3 nM	33.1 ± 0.4 nM	800 ± 100 nM	CSc1cc(-c2nnnn2-c2ccc3c(c2)c(C=O)cn3C)cc(Cl)n1 [Compound 14, 5-(5-(2-chloro-6-(methylsulfanyl)pyridin-4-yl)-1H-tetrazol-1-yl)-1-methyl-1H-indole-3-carbaldehyde]	80%	severe microtubule network disruption	29%	2.6%
37 nM	37.1 ± 0.2 nM	59 nM	59.4 ± 0.5 nM	61.4 ± 0.4 nM	1500 ± 100 nM	CSc1cc(-c2nnnn2-c2ccc3c(ccn3C)c2)cc(Cl)n1 [Compound 10, 5-(5-(2-chloro-6-(methylsulfanyl)pyridin-4-yl)-1H-tetrazol-1-yl)-1-methyl-1H-indole]	~73%	severe microtubule network disruption	22%	2.3%
